According to patent US7049311B1, “Pyrrolbenzodiazepines” (Spirogen Limited, priority 1998, dated 2006):
Several values for one entry are separate records, joined by “and”; a condition that tells them apart may be missing. Equal entries are not always repeated.

What was measured:
[1] = test system: CH1; assay: Ovarian carcinoma cytotoxicity assay; format: cell-based; settings: Homo sapiens, CH1, 96 h, read-out: IC50 CH1
How it was run: (§1)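 Cells attached overnight, then read 96 hours later by sulphorhodamine B staining of TCA-fixed cells, with absorbance at 540 nm. IC50 taken from concentration versus % absorbance relative to untreated wells; cisR lines are cisplatin-resistant.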

[2] = test system: SKOV-3; assay: Ovarian carcinoma cytotoxicity assay; format: cell-based; settings: Homo sapiens, SK-OV-3, 96 h, read-out: IC50 Skov3
How it was run: as §1

[3] = test system: CH1cisR; assay: Ovarian carcinoma cytotoxicity assay; format: cell-based; settings: Homo sapiens, CH1cisR, 96 h, read-out: IC50 CH1cisR
How it was run: as §1

[4] = test system: human CNS tumour SF-295; assay: NCI human xenograft study; format: in vivo, mice; settings: 5 doses
Method: These are carried out on nucle athymic mice with a disabled immune system. The human tumour tissue to be tested is implanted in their flanks, and whilst the control mouse receives no treatment, the others are subjected to varying doses of the test compound, which is administered intraperitoneally. The results are expressed as the toxicity of the compound, the amount of tumour growth, and the inhibition of growth.
UP2001 (80) was also evaluated against the human CNS tumour SF-295. Athymic nude mice bearing SF-295 were treated at doses of 0.40, 0.27 and 0.18 mg/Kg by injection given intravenously once daily for a total of 5 doses.

[5] = test system: A2780; assay: Ovarian carcinoma cytotoxicity assay; format: cell-based, human; settings: Homo sapiens, A2780, 96 h, read-out: IC50 A2780
How it was run: as §1

[6] = test system: A2780cisR; assay: Ovarian carcinoma cytotoxicity assay; format: cell-based, human; settings: Homo sapiens, A2780cisR, 96 h, read-out: IC50 A2780cisR
How it was run: as §1

[7] = test system: calf thymus DNA; assay: DNA helix melting temperature assay; format: binding
Method: The first assay, which is described in G. B. Jones, et al., Anti-Cancer Drug Des., 1990, 5, 249, which is incorporated herein by reference, determines the effect of the test compound on the helix melting temperature of DNA. This assay is designed to give an indication of the strength and extent of cross-linking of the DNA strands by the test compound (i.e. a measure of the stabilisation of the DNA upon ligand binding).
The melting temperature was determined for a 1:5 molar ratio of [ligand] [DNA], where the calf thymus DNA concentration is […] in aqueous sodium phosphate buffer (10 mM sodium phosphate+1 mM EDTA, pH 7.00±0.01). For calf thymus DNA at pH 7.00±0.01, the melting temperature is 67.83±0.06° C. (mean value from 30 separate determinations).

[8] = test system: A2780cisR; assay: Cytotoxicity in cisplatin-resistant A2780cisR (Example 9); format: cell-based, human; settings: for IC50: Homo sapiens, A2780cisR, 96 h
Method: Relative to the parental line, the A2780cisR subline is known to have elevated GSH levels, an increased level of repair of DNA-cisplatin adducts, and a decreased ability to uptake cisplatin (M. Smellie, et al., Br. J. Cancer, 1994, 70, 48).
The results, which were obtained by incubating the cells with the compounds for 96 hours at 37° C., and assessing the cell number using Sulforhodamine B, are presented in the table below: […]

Molecule C=C1C[C@H]2C=Nc3cc(OCCCOc4cc5c(cc4OC)C(=O)N4CC(=C)C[C@H]4C=N5)c(OC)cc3C(=O)N2C1 [UP2001 (80)] has an IC50 [1] of 0.12 nM, an IC50 [2] of 9.1 nM and an IC50 [3] of 0.6 nM. For the same molecule, the “% T/C Low” value ([4]; 0.18 mg/Kg intravenously once daily) was 0%, the “Toxicity Low” value ([4]; 0.18 mg/Kg intravenously once daily, mice dying) was “two and 2/6” and the “Tumour Free Low” value ([4]; 0.18 mg/Kg intravenously once daily, surviving mice tumour free on day 27) was 3 out of 4 and 3/4. For the same molecule, the “% T/C Med” value ([4]; 0.27 mg/Kg intravenously once daily) was 0%, the “Toxicity Med” value ([4]; 0.27 mg/Kg intravenously once daily, mice dying) was 1 and 1/6 and the “Tumour Free Med” value ([4]; 0.27 mg/Kg intravenously once daily, surviving mice tumour free on day 27) was “all the surviving mice were tumour free and 5/5”. For the same molecule, the “% T/C High” value ([4]; 0.40 mg/Kg intravenously once daily) was 0%, the “Toxicity High” value ([4]; 0.40 mg/Kg intravenously once daily, mice dying) was 2 and 2/6 and the “Tumour Free High” value ([4]; 0.40 mg/Kg intravenously once daily, surviving mice tumour free on day 27) was “all the surviving mice were tumour free and 4/4”. For the same molecule, the IC50 [5] was 0.023 nM, the IC50 [6] was 0.024 nM and the “Induced ΔTa after incubation at 37° C. for 0 h” value ([7]; [PBD]:[DNA] ratio of 1:5, calf thymus DNA, pH 7.00, 0 h) was 25.7 °C. For the same molecule, the “Induced ΔTa after incubation at 37° C. for 4 h” value ([7]; [PBD]:[DNA] ratio of 1:5, calf thymus DNA, pH 7.00, 4 h) was 31.9 °C, the “Induced ΔTa after incubation at 37° C. for 18 h” value ([7]; [PBD]:[DNA] ratio of 1:5, calf thymus DNA, pH 7.00, 18 h) was 33.6 °C and the “share of stabilising effect provided without prior incubation” value ([7]; calf thymus DNA melting) was 60-80%. The “fold more effective than DSB-120 (comparative ΔTm curves)” value ([7]; on a concentration basis) was no less than 10 fold, the “fold more potent than DSB-120” value ([8]; A2780cisR cell line) was ~9,000 fold and the IC50 ([8]; read-out: IC50 A2780cisR) was 0.024 nM. The IC50 ([8]; read-out: IC50 A2780cis^a) was 0.024 nM.
